In ChEMBL document CHEMBL4354805, “Discovery of MK-8719, a Potent O-GlcNAcase Inhibitor as a Potential Treatment for Tauopathies” (J Med Chem, 2019):
pEC50, pIC50, pKi: −log10 of the molar value.

Columns and labels:
MDR1 = experiment: Apparent permeability in pig LLC-PK1 cells transfected with MDR1; assay type: ADME, cell-based, Sus scrofa
Protein O-GlcNAcase [1] = biological target: T1, Protein O-GlcNAcase (Homo sapiens, UniProt O60502); experiment: Inhibition of recombinant human OGA
T1 sequence (O60502 whole entry): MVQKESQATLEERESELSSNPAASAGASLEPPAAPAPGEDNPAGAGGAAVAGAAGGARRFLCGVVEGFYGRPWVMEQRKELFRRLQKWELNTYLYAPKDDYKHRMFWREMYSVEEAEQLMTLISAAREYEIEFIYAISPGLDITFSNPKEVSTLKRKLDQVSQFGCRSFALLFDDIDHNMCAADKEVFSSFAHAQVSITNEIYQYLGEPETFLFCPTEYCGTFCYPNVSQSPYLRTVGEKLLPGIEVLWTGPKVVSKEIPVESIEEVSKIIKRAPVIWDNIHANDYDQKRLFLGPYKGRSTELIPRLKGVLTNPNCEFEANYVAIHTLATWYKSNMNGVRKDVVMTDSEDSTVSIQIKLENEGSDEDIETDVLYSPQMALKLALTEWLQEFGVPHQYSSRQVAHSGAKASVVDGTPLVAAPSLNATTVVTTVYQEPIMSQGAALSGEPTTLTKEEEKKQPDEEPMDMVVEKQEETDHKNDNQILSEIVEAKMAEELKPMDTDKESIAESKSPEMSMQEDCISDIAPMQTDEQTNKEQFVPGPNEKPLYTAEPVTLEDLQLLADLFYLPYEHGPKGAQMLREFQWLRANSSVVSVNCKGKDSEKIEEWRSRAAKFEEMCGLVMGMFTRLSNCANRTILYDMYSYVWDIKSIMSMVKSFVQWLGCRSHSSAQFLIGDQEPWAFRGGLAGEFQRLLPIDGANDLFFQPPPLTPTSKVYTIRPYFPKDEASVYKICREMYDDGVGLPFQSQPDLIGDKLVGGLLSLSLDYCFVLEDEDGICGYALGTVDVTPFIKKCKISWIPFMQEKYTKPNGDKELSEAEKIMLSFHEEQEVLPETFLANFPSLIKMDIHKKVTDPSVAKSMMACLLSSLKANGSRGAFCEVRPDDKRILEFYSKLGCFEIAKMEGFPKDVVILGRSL

[2] = biological target: T2, Beta-hexosaminidase subunit beta (Homo sapiens, UniProt P07686); experiment: Inhibition of human beta hexosaminidase assessed as inhibitory constant using 4-methylumbelliferyl N-acetyl-beta-D-glucosaminide dihydrate as substrate measured every 60 sec for 45 mins by fluorescence spectrophotometry
T2 sequence (P07686 whole entry): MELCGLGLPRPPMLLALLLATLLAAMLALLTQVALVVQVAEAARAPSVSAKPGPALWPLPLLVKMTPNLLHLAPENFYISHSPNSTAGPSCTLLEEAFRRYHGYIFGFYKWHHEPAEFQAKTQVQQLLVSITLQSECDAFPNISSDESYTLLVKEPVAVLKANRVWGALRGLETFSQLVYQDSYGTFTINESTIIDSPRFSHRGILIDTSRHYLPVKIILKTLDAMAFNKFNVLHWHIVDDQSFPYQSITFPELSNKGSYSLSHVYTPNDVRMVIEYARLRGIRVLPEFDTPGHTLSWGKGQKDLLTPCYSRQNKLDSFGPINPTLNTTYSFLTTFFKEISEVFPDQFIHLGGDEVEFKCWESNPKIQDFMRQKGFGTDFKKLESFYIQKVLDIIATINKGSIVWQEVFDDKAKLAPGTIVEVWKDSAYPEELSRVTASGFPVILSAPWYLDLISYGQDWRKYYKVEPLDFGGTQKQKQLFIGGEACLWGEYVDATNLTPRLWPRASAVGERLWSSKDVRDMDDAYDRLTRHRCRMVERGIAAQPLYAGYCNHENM

[3] = biological target: Voltage-gated inwardly rectifying potassium channel KCNH2 (Homo sapiens, UniProt Q12809); experiment: Displacement of MK-0499 from human ERG
Voltage-gated inwardly rectifying potassium channel KCNH2, sequence (Q12809 whole entry): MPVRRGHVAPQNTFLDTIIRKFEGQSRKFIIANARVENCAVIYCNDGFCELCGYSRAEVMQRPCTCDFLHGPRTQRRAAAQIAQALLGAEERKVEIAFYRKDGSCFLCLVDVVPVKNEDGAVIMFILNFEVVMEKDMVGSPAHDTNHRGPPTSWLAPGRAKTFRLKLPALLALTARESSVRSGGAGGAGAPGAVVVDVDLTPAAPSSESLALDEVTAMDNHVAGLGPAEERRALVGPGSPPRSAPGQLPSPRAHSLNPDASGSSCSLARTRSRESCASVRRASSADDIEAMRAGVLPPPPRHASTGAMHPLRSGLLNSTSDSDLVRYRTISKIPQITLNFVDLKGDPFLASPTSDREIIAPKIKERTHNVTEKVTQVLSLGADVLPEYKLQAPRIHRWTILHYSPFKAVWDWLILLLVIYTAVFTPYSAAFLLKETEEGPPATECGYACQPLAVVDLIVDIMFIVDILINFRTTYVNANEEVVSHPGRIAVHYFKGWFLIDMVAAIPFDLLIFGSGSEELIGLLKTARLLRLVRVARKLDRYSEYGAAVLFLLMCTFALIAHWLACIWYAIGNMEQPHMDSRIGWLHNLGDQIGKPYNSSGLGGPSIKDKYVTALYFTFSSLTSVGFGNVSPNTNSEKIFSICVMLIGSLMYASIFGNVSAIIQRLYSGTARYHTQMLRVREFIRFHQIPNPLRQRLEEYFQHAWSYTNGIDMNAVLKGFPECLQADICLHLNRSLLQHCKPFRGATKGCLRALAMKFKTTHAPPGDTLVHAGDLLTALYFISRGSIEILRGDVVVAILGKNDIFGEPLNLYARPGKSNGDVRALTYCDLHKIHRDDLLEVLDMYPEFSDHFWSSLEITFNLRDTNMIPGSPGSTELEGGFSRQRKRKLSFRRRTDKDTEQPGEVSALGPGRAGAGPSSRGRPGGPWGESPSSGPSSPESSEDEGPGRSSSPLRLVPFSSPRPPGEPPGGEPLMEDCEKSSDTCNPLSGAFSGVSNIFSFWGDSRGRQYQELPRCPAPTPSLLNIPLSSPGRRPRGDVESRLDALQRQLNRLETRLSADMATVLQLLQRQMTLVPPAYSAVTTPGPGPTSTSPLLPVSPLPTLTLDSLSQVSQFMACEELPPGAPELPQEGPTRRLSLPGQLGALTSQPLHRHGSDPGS

[4] = biological target: Sodium channel protein type 5 subunit alpha (Homo sapiens, UniProt Q14524); experiment: Inhibition of Nav1.5 (unknown origin)
[5] = biological target: Voltage-dependent L-type calcium channel subunit alpha-1C (Homo sapiens, UniProt Q13936); experiment: Inhibition of Cav1.2 (unknown origin)
Voltage-dependent L-type calcium channel subunit alpha-1C, sequence (Q13936 whole entry): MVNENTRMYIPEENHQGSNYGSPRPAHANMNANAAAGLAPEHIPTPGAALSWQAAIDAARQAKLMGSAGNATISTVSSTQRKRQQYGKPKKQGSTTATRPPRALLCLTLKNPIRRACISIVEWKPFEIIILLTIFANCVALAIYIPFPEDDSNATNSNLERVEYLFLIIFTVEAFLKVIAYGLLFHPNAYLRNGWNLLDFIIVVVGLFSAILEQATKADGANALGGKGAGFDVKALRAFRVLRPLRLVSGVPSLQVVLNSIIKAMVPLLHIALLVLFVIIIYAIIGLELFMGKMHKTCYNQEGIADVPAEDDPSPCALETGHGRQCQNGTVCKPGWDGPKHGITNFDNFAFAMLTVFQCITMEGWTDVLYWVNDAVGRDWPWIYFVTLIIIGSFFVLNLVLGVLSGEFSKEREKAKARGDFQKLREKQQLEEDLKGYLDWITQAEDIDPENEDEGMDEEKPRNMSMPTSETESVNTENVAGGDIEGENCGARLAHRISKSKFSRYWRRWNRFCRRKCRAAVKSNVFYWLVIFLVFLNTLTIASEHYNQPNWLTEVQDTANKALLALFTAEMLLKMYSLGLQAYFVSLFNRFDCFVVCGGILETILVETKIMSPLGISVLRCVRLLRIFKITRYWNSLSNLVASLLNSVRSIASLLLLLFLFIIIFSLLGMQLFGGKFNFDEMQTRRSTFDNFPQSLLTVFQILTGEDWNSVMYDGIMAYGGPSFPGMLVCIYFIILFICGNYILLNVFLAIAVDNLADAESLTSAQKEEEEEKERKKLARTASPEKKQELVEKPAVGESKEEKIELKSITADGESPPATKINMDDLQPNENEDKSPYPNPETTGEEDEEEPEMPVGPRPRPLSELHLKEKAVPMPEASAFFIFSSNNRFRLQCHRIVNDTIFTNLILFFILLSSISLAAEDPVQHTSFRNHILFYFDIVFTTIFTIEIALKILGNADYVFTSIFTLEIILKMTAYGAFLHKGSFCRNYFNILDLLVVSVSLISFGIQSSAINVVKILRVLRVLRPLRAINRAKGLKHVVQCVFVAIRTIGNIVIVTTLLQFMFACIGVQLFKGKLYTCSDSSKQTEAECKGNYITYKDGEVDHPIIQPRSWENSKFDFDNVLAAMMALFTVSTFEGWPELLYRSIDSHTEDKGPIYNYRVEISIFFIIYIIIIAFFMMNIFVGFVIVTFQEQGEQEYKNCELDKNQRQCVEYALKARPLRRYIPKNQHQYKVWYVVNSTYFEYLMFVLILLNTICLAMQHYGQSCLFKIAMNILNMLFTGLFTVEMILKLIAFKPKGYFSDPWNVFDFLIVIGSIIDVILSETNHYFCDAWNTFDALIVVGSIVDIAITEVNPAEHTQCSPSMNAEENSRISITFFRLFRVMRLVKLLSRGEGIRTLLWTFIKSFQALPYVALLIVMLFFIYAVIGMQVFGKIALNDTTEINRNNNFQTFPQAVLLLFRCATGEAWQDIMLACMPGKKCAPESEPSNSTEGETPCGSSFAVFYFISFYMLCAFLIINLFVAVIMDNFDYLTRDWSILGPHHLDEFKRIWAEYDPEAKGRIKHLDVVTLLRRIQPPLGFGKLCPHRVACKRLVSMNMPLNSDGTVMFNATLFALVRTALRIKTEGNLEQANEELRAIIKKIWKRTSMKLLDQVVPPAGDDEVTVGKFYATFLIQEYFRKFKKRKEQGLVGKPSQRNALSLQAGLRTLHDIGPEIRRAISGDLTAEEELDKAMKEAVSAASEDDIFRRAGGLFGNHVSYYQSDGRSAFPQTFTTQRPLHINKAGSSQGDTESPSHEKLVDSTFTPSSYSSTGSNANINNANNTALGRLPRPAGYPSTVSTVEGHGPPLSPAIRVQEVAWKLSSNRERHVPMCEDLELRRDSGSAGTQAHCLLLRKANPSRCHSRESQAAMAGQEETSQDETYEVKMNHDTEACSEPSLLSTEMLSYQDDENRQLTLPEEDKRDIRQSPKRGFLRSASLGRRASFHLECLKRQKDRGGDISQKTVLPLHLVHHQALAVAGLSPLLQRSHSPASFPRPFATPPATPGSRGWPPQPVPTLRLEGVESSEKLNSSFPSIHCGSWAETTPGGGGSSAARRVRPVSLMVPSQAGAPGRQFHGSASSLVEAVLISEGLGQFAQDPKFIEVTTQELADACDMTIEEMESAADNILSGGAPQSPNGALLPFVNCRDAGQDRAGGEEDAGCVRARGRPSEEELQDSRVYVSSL

Cytochrome P450 3A4 = Cytochrome P450 3A4 (Homo sapiens, UniProt P08684); experiment: Inhibition of CYP3A4 (unknown origin); assay type: ADME
Cytochrome P450 3A4, sequence (P08684 whole entry): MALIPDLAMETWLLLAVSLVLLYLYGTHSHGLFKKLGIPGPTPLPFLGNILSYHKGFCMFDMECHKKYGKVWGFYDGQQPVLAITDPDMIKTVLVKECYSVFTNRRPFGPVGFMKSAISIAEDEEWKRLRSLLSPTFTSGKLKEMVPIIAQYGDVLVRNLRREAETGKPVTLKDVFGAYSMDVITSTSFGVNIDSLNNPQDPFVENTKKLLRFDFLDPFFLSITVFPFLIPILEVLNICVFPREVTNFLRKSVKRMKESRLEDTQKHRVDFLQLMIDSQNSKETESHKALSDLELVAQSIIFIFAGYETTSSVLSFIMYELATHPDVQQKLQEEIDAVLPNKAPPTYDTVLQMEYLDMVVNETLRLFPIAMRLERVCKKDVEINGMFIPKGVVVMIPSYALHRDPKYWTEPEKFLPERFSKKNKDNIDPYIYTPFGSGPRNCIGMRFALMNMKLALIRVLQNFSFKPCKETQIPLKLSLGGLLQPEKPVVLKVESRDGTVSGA

Cytochrome P450 2D6 = Cytochrome P450 2D6 (Homo sapiens, UniProt P10635); experiment: Inhibition of CYP2D6 (unknown origin); assay type: ADME
Cytochrome P450 2D6, sequence (P10635 whole entry): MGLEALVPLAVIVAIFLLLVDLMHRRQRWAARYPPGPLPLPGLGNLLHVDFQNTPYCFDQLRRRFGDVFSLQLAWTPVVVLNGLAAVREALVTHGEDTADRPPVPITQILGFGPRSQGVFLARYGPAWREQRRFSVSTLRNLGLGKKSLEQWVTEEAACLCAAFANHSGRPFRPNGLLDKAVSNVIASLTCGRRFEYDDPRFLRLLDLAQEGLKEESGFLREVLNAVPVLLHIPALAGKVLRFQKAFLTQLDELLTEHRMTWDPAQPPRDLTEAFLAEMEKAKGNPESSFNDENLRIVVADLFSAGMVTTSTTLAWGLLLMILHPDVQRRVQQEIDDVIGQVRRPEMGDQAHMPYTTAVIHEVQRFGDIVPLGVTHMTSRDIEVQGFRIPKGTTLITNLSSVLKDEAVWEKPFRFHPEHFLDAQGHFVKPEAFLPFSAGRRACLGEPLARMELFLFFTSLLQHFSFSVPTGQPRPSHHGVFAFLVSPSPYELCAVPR

Cytochrome P450 2C9 = Cytochrome P450 2C9 (Homo sapiens, UniProt P11712); experiment: Inhibition of CYP2C9 (unknown origin); assay type: ADME
Cytochrome P450 2C9, sequence (P11712 whole entry): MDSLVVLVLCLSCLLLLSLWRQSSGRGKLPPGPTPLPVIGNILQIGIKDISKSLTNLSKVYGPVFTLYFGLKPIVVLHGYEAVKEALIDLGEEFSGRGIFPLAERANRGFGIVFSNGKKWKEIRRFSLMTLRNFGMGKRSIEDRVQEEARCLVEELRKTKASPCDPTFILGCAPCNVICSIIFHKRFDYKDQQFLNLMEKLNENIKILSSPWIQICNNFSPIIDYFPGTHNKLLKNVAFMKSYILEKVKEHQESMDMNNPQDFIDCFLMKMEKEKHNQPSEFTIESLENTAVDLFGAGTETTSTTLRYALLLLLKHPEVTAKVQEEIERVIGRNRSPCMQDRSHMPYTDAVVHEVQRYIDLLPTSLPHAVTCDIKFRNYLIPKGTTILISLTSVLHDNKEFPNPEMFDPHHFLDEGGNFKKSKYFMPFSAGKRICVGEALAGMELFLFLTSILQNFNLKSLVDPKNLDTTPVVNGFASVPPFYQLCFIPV

[6] = biological target: T3, Nuclear receptor subfamily 1 group I member 2 (Homo sapiens, UniProt O75469); experiment: Activation of PXR (unknown origin) assessed as CYP3A4 induction
T3 sequence (O75469 whole entry): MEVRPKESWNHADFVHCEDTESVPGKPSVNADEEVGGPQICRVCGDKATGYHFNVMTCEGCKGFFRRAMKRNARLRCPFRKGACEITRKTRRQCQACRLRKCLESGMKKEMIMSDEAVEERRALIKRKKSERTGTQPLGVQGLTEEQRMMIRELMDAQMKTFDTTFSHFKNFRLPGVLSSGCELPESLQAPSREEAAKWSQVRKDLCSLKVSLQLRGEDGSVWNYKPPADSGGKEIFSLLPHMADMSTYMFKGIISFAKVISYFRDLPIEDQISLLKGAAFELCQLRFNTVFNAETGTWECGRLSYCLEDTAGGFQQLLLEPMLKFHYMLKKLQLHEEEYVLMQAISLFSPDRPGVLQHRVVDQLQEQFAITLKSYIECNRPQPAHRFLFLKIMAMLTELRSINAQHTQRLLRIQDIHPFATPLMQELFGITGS

Protein O-GlcNAcase [7] = biological target: T4, Protein O-GlcNAcase (Rattus norvegicus, UniProt Q8VIJ5); experiment: Inhibition of OGA in rat PC12 cells assessed as OGlcNAcylated protein level incubated for 24 hrs by ELISA; assay type: cell-based
T4 sequence (Q8VIJ5 whole entry): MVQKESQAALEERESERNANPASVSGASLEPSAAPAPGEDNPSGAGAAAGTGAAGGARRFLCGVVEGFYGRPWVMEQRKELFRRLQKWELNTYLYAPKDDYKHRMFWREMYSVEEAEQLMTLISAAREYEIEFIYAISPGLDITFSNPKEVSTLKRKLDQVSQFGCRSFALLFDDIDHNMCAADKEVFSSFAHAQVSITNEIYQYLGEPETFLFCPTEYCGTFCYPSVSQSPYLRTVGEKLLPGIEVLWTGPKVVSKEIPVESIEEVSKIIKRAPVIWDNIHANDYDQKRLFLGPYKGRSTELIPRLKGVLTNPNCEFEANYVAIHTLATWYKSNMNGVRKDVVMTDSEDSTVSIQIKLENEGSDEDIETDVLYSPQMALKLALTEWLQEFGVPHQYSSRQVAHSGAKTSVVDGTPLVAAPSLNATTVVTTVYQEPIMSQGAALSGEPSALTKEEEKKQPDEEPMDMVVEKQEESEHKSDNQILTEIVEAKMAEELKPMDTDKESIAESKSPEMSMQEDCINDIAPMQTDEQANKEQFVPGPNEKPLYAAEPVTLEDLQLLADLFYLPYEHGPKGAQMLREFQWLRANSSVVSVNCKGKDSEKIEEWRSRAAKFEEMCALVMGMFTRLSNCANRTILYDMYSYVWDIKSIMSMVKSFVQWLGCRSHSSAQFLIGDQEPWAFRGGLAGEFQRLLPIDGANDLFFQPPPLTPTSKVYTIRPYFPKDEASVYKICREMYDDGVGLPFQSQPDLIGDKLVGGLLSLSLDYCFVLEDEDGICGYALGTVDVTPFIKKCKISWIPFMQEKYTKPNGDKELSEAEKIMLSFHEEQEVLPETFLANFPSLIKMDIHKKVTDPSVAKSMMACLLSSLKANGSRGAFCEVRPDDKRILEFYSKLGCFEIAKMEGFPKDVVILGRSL

[8] = AUCN in Wistar Han rat at 10 mg/kg, po; assay type: ADME, organism-based; details: in vivo
[9] = Clearance in Wistar Han rat at 2 mg/kg, iv; assay type: ADME, organism-based; details: in vivo
[10] = Half life in Wistar Han rat at 2 mg/kg, iv; assay type: ADME, organism-based; details: in vivo
[11] = Volume of distribution at steady state in Wistar Han rat at 2 mg/kg, iv or 10 mg/kg, po; assay type: ADME, organism-based; details: in vivo, read-out: Vdss
[12] = Oral bioavailability in Wistar Han rat at 10 mg/kg; assay type: ADME, organism-based; details: in vivo
[13] = AUCN in Wistar Han rat at 3 mg/kg, po; assay type: ADME, organism-based; details: in vivo
[14] = Volume of distribution at steady state in Wistar Han rat at 2 mg/kg, iv or 3 mg/kg, po; assay type: ADME, organism-based; details: in vivo, read-out: Vdss
[15] = Oral bioavailability in Wistar Han rat at 3 mg/kg; assay type: ADME, organism-based; details: in vivo
Rattus norvegicus = experiment: Elevation of O-protein in rat brain at 3 mg/kg, po measured after 8 hrs relative to control; assay type: functional
[16] = Drug uptake in rat brain at 3 mg/kg, po measured after 8 hrs; assay type: ADME, organism-based; details: in vivo
[17] = Ratio of drug uptake in rat brain to plasma at 3 mg/kg, po measured after 8 hrs; assay type: ADME, organism-based; details: read-out: BPR

## CCNC1=N[C@H]2[C@H](O[C@H](CO)C[C@@H]2O)S1
MDR1
  Papp: 7 ×10⁻⁶ cm/s
Protein O-GlcNAcase [1]
  pKi: < 5.52
[2]
  pKi: < 5.00
[3]
  pIC50: < 4.52
[4]
  pIC50: < 4.52
[5]
  pIC50: < 4.52
Cytochrome P450 3A4
  pIC50: < 4.30
Cytochrome P450 2D6
  pIC50: < 4.30
Cytochrome P450 2C9
  pIC50: < 4.30
[6]
  pEC50: < 4.52

## CCN(C)C1=N[C@@H]2[C@@H](O)[C@H](O)[C@@H](CO)O[C@@H]2S1
MDR1
  Papp: 1.1 ×10⁻⁶ cm/s
Protein O-GlcNAcase [1]
  pKi: 8.26
Protein O-GlcNAcase [7]
  pEC50: 7.44
[2]
  pKi: 5.44
[8]
  AUC/dose: 0.598 µM·kg·h/mg
[9]
  clearance: 66.3 mL/min/kg
[10]
  half-life: 1.89 h
[11]
  Vd: 5.39 L/kg
[12]
  bioavailability: 62%
[3]
  pIC50: < 4.52
[4]
  pIC50: < 4.52
[5]
  pIC50: < 4.52
Cytochrome P450 3A4
  pIC50: < 4.30
Cytochrome P450 2D6
  pIC50: < 4.30
Cytochrome P450 2C9
  pIC50: < 4.30
[6]
  pEC50: < 4.52

## CCNC1=N[C@@H]2[C@@H](O)[C@H](O)[C@@H](COC)O[C@@H]2S1
Protein O-GlcNAcase [1]
  pKi: 6.72
[3]
  pIC50: < 4.52
[4]
  pIC50: < 4.52
[5]
  pIC50: < 4.52
Cytochrome P450 3A4
  pIC50: < 4.30
Cytochrome P450 2D6
  pIC50: < 4.30
Cytochrome P450 2C9
  pIC50: < 4.30
[6]
  pEC50: < 4.52

## CCNC1=N[C@@H]2[C@@H](O)[C@H](OC)[C@@H](CO)O[C@@H]2S1
Protein O-GlcNAcase [1]
  pKi: < 5.52
[3]
  pIC50: < 4.52
[4]
  pIC50: < 4.52
[5]
  pIC50: < 4.52
Cytochrome P450 3A4
  pIC50: < 4.30
Cytochrome P450 2D6
  pIC50: < 4.30
Cytochrome P450 2C9
  pIC50: < 4.30
[6]
  pEC50: < 4.52

## CNC1=N[C@@H]2C[C@H](O)[C@@H](CO)O[C@@H]2S1
Protein O-GlcNAcase [1]
  pKi: 8.03
Protein O-GlcNAcase [7]
  pEC50: 7.48
[2]
  pKi: < 5.00
[8]
  AUC/dose: 2.53 µM·kg·h/mg
[9]
  clearance: 39 mL/min/kg
[10]
  half-life: 1.06 h
[11]
  Vd: 2.8 L/kg
[12]
  bioavailability: 129%

## CCCNC1=N[C@@H]2[C@@H](O)[C@H](O)[C@@H](C(F)F)O[C@@H]2S1
MDR1
  Papp: 14 ×10⁻⁶ cm/s
Protein O-GlcNAcase [1]
  pKi: 8.28
Protein O-GlcNAcase [7]
  pEC50: 7.38
[2]
  pKi: < 5.00
[13]
  AUC/dose: 0.376 µM·kg·h/mg
[9]
  clearance: 72.6 mL/min/kg
[10]
  half-life: 3.89 h
[14]
  Vd: 5.99 L/kg
[15]
  bioavailability: 44.8%
Rattus norvegicus
  fold change (FC): 1.81
[16]
  Drug uptake: 0.193 nmol/g
[17]
  Kp at 8 h: 8.81
